Entries after “also recorded” stand apart in the source; their conditions may differ. Positions of bridges follow the written chain, without caps; N, C: chain ends. No end group written: not given here.
What was measured:
isolated rat islets = experiment: Insulin secretion from isolated rat islets (static incubation); format: cell-based; details: hGRPP 1, 10, and 100 nmol L^−1, 1 h, 8 to 9 incubations of 10 islets/well, three experiments, ELISA
Source text: (§1) Maximum pancreatic first‐phase insulin secretion in the presence of hormone infusion was contrasted with corresponding control values by unpaired Welch's t‐tests for preplanned comparisons, to allow for unequal variance between groups. Linear mixed‐effects models were fitted by restricted maximum likelihood (LME‐REML) to data obtained from each indicated phase of isolated perfused–organs studies, using S‐PLUS version 8.2 (TIBCO, Spotfire). Calculated P‐values <0.05 are presented in the article and reflect the likelihood ratio between two models, the effect in question (treatment, time, or treatment:time) against the model without the effect in question. Insulin secreted from isolated islets was expressed as a percentage of insulin content and compared using one‐way ANOVA (GraphPad Prism version 6.0: GraphPad Software Inc., San Diego, CA). Cyclic AMP data have been normalized to the response obtained to forskolin and fitted to obtain concentration–response curves using a three‐parameter logistic equation (GraphPad Prism version 6.0: GraphPad Software Inc., San Diego, CA): pEC50 values were obtained from the concentration–response curves and compared using one‐way ANOVA. All data are presented as mean ± SEM of three to four independent experiments.

[1] = molecular target: T1, human glucagon receptor (hGL‐R) (Homo sapiens, UniProt P47871); experiment: cAMP stimulation in transfected Cos 7 cells, hGL‐R; format: cell-based; details: preliminary experiment, hGL‐R with vector; data not shown
T1 construct: expressed in transfected cells; host or cells: Cos 7 cells
Procedure: Transfection of Cos 7 cells
Cos 7 cells were maintained and subcultured as previously described (Bailey and Hay 2006) and plated at a density of 15,000 cells per well into 96‐well plates 1 day prior to transfection. […] Cyclic AMP assays were performed 48 h after transfection (Bailey and Hay 2006). The human GRPP was obtained from Bachem (Bubendorf, Switzerland).
(§2) Cyclic AMP stimulation of transfected Cos 7 cells
(§3) Transfected cells were serum‐deprived in DMEM containing 1 mmol L^−1 IBMX and 0.1% (w/v) bovine serum albumin (BSA) for 30 min. […] Plates were incubated at 37°C for 10 min. […] Media were then aspirated from the wells and reactions terminated by addition of ice‐cold absolute ethanol. Ethanol was then evaporated to dryness and cell extracts re‐suspended in 45 μL cAMP assay buffer: cAMP concentrations were determined using ALPHA‐screen assay kits (Perkin Elmer, Massachusetts) as previously described (Gingell et al. 2010).
as §1, with “Cyclic AMP data have been normalized to the response obtained to forskolin and fitted to obtain concentration–response curves using a three‐parameter logistic equation (GraphPad Prism version 6.0: GraphPad Software Inc., San Diego, CA): pEC50 values were obtained from the concentration–response curves and compared using one‐way ANOVA. All data are presented as mean ± SEM of three to four independent experiments.” left out

hGL‐R with RAMP2 = experiment: cAMP stimulation in Cos 7 cells transfected with hGL‐R and RAMP2; format: cell-based, human; details: preliminary experiment; data not shown
Procedure: as §2, §3

canine pancreas = details: local circulation preparation of the canine pancreas; ref Ohneda and Ohneda 1988; cited from earlier work
Source text: However, we know of only one study reporting the effects of GRPP on GSIS. […] The precise experimental conditions such as amount of glucose and experimental model used may have influences on the different outcomes; however, the reason for the opposing actions of GRPP between these ...

pancreatic β‐cell = details: ref Metz et al. 1983; Zielmann et al. 1985; Holst et al. 1987; Shima et al. 1988; Goke et al. 1989; Ishizuka et al. 1991; Jia et al. 1995; Vahl et al. 2003; cited from earlier work
[2] = test system: isolated‐perfused rat pancreas, perifused rat islets, and cultured islets; details: ref Norfleet et al. 1975, Fujimoto 1981, Bolaffi et al. 1990; cited from earlier work
Source text: (§4) GRPP and GRPP‐LP may inhibit insulin secretion indirectly, perhaps by influencing other islet‐derived hormones known to modulate hormone secretion from the β‐cell.

[3] = test system: plasma insulin and glucagon; details: infusion in humans; ref Skamene and Patel 1984; cited from earlier work
Source text: as §4

T1 sequence (P47871 26-477): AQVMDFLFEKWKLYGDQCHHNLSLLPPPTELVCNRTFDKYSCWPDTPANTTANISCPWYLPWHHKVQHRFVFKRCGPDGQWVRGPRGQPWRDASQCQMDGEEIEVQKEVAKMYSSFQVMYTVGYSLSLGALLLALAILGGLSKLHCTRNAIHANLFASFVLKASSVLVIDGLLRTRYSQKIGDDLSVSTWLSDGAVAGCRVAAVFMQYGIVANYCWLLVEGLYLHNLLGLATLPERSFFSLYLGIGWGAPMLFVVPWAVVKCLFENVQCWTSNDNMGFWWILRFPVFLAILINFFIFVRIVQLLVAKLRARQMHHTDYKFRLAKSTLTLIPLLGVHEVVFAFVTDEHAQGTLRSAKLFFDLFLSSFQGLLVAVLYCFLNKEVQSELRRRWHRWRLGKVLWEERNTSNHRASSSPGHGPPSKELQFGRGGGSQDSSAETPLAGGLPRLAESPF

Substance: RSLQDTEEKSRSFSASQADPLSDPDQMNED [hGRPP, human glicentin‐related pancreatic polypeptide, The human GRPP was obtained from Bachem]
- Basal insulin secretion from islets (vs control) (isolated rat islets; 2.8 mmol L^−1 glucose): did not affect insulin secretion; also recorded: did not affect basal or stimulated insulin compared with untreated islets
- Glucose‐stimulated insulin secretion from islets (vs control) (isolated rat islets; 16.7 mmol L^−1 glucose): did not affect insulin secretion; also recorded: did not affect basal or stimulated insulin compared with untreated islets
- Stimulation of cAMP production at hGL‐R alone [1]: did not stimulate cAMP production at hGL‐R alone
- Stimulation of cAMP production at hGL‐R in the presence of RAMP2 (hGL‐R with RAMP2): did not stimulate cAMP production at hGL‐R alone or in the presence of RAMP2
- Plasma insulin and glucagon, canine pancreas (canine pancreas): slight increases in plasma insulin and decreases in plasma glucagon

Substance: glucagon‐like peptide 1 (HAEGTFTSDVSSYLEGQAAKEFIAWLVKGR; ends and bridges not checked; UniProt P01275 98-127, looked up) [GLP‐1, incretin; literature statement, form not specified]
- GSIS (action on pancreatic β‐cell) (pancreatic β‐cell): enhance glucose‐stimulated insulin secretion

Substance: somatostatin (AGCKNFFWKTFTSC; disulfide 3-14; ends not checked; UniProt P61278 103-116, looked up) [SST]
- GSIS and arginine‐stimulated glucagon secretion [2]: inhibits GSIS as well as arginine‐stimulated glucagon secretion
- Arginine‐stimulated plasma insulin and glucagon levels [3]: decreased arginine‐stimulated plasma insulin and glucagon levels in a dose‐dependent manner
